The values that follow come from PMC8046226, “Koala cathelicidin PhciCath5 has antimicrobial activity, including against Chlamydia pecorum” (PLoS ONE, 2021).

Converted amounts (≈) assume the structure as drawn. Like-named read-outs stand apart in the source and are kept apart here. Residues, ends and D or L forms follow the SMILES beside them. No end group written: not given here.

Assay [1] concerns C. trachomatis. To be noted: cited from earlier work. An excerpt: Koala cathelicidin PhciCath5 inactivated C. pecorum MarsBar and IPTaLE elementary bodies (EB) and was the only peptide tested that caused biologically and statistically significant reductions in chlamydial inclusions. […] Timing of cathelicidin release from immune and epithelial cells within the host may not enable direct interaction with EB. […] Indeed, proteases secreted by this C. trachomatis neutralise LL-37 anti-chlamydial activity, thereby evading AMP attack and ensuring extracellular EB survival. ...

In assay [2] the test system is C. pecorum IPTaLE. In words: Chlamydia pecorum antimicrobial susceptibility (elementary body inactivation, IFU/mL). Format: cell-based. To be noted: 125, 250 and 500μg/mL; less than half an order of magnitude difference in chlamydial inclusions compared with the control. As for the experimental part: (§1) C. pecorum IPTaLE and MarsBar were cultured in mouse McCoy B cells, on DMEM supplemented with 10% foetal calf serum (FCS), 0.1mg/mL streptomycin and 0.05mg/mL gentamicin at 37°C in a 5% CO2 atmosphere. Cell lines were routinely tested for mycoplasma contamination every 2 months. Prior to performing antimicrobial susceptibility assays, 96-well plates were seeded with 30,000 host cells per well 24 hours prior to chlamydial infection as described previously. For the antimicrobial assays, koala cathelicidin mature peptides, PhciCath1, 2, 3, 5 and 6, were solubilized in water for cell culture with 0.01% acetic acid, and two-fold dilutions were made in sucrose-phosphate-glutamic acid (SPG) media from 1mg to 250μg/mL, in triplicate. Cathelicidin containing wells were diluted one in two with C. pecorum IPTaLE and MarsBar EBs and incubated for 2 hours at 37°C, giving a final cathelicidin concentration of 500, 250 and 125μg/mL. A negative SPG only control was included. To exclude the possibility of cathelicidin toxicity to McCoy cells, cathelicidin dilutions were removed by centrifugation and C. pecorum EBs re-suspended in DMEM supplemented with 10% FCS, 0.1mg/mL streptomycin and 0.05mg/mL gentamycin. The suspension was used to infect a McCoy B ATCC CRL-1696 cell monolayer at a Multiplicity of Infection (MOI) of 0.6 as described previously. […]

Assay [3] relates to C. pecorum MarsBar. The description is as above. To be noted: 125, 250 and 500μg/mL; less than half an order of magnitude difference in chlamydial inclusions compared with the control. Format: cell-based. As for the experimental part:
as §1

Assay [4] relates to E. coli ATCC25922. Format: cell-based. As for the experimental part: (§2) Antimicrobial activity was determined against a range of bacteria and fungi from humans and animals using a broth microdilution susceptibility assay according to clinical laboratory standards institute (CLSI) guidelines in 96 well polypropylene plates as described previously. Briefly, cathelicidins were dissolved in DMSO and serially diluted, in cation-adjusted Mueller Hinton Broth (MH II B) with or without 10% lysed horse blood for bacteria, and yeast nitrogen base (YNB) for fungi. Cathelicidin concentrations ranged between 64μg/mL and 0.125μg/mL in a final volume of 100μL. For all bacteria and fungi tested, ampicillin, tetracycline and fluconazole were included as positive controls, in addition to a media-only control and growth control (no inhibitor). Bacteria and fungi were sub-cultured 20–24 hours prior to the test, suspended in saline and their concentration adjusted to a 0.5 McFarland standard. Microorganisms were then diluted to a concentration of 0.5–1.0x10^6 cells/mL, with colony counts performed to confirm microorganism density, and 100μL was dispensed into the wells of the cathelicidin dilution plate. All plates were incubated at 35°C for 20–48 hours depending on the strain. Antimicrobial activity was expressed as minimum inhibitory concentration (MIC), which was defined as the lowest concentration of cathelicidin preventing visible bacterial growth, relative to the no-drug control. The same microdilution susceptibility assay was performed using Mueller Hinton Broth without the addition of the divalent cations calcium and magnesium (MHB), to test the effect of the cations on PhciCath5 activity against the ATCC strains E. coli 25922 and S. aureus 29213.

Assay [5] relates to P. aeruginosa ATCC27853. Format: cell-based. The procedure:
as §2

For assay [6], the system named is S. agalactiae ATCC12386. The class given is cell-based. The procedure: as §2
Assay [7] concerns S. aureus ATCC29213. The class given is cell-based. As for the experimental part: as §2
In assay [8] the test system is S. dysgalactiae. Format: cell-based. The procedure: as §2
The subject of assay [9] is S. lutetiensis. Format: cell-based. The procedure: as §2
For assay [10], the system named is S. mutans. Format: cell-based. The procedure:
as §2

In assay [11] the test system is S. oralis. Format: cell-based. As for the experimental part: as §2
Assay [12] concerns S. pneumoniae ATCC49619. Format: cell-based. As for the experimental part: as §2
Assay [13] concerns S. pyogenes ATCC19615. Format: cell-based. The procedure:
as §2

Assay [14] relates to S. salivarius. Format: cell-based. The procedure: as §2
Assay [15] deals with MRSA (animal isolate). The class given is cell-based, Staphylococcus aureus. To be noted: broth microdilution (CLSI), MH II B with magnesium and calcium cations, 35°C, 20–48 hours. As for the experimental part: as §2, with “All plates were incubated at 35°C for 20–48 hours depending on the strain.” left out, “The same microdilution susceptibility assay was performed using Mueller Hinton Broth without the addition of the divalent cations calcium and magnesium (MHB), to test the effect of the cations on PhciCath5 activity against the ATCC strains E. coli 25922 and S. aureus 29213.” left out

Assay [16] concerns C. albicans. The experiment in a line: Broth microdilution susceptibility assay (MIC). To be noted: broth microdilution (CLSI), yeast nitrogen base (YNB) for fungi, 35°C, 20–48 hours. Format: cell-based. The procedure: as §2
(In general: In broth dilution the organism is exposed to a series of concentrations in liquid medium.)

Assay [17] deals with C. glabrata. In words: Broth microdilution susceptibility assay (MIC). To be noted: broth microdilution (CLSI), yeast nitrogen base (YNB) for fungi, 35°C, 20–48 hours. The class given is cell-based. The procedure: as §2
For assay [18], the system named is E. coli (animal isolate). The experiment in a line: Broth microdilution susceptibility assay (MIC). Format: cell-based. To be noted: broth microdilution (CLSI), MH II B with magnesium and calcium cations, 35°C, 20–48 hours. The procedure:
as §2

Assay [19] relates to K. pneumoniae (animal isolate). The experiment in a line: Broth microdilution susceptibility assay (MIC). Format: cell-based. To be noted: broth microdilution (CLSI), MH II B with magnesium and calcium cations, 35°C, 20–48 hours. The procedure:
as §2

Assay [20] has as its system L. monocytogenes (animal isolate). The experiment in a line: Broth microdilution susceptibility assay (MIC). Format: cell-based. To be noted: broth microdilution (CLSI), MH II B with magnesium and calcium cations, 35°C, 20–48 hours. As for the experimental part:
as §2

In assay [21] the test system is P. aeruginosa (animal isolate). The experiment in a line: Broth microdilution susceptibility assay (MIC). Format: cell-based. To be noted: broth microdilution (CLSI), MH II B with magnesium and calcium cations, 35°C, 20–48 hours. The procedure:
as §2

In assay [22] the test system is P. multocida (animal isolate). In words: Broth microdilution susceptibility assay (MIC). Format: cell-based. To be noted: broth microdilution (CLSI), MH II B with magnesium and calcium cations, 35°C, 20–48 hours. As for the experimental part: as §2
Assay [23] relates to S. agalactiae (animal isolate). The experiment in a line: Broth microdilution susceptibility assay (MIC). Format: cell-based. To be noted: broth microdilution (CLSI), MH II B with magnesium and calcium cations, 35°C, 20–48 hours. The procedure:
as §2

Assay [24] deals with S. aureus (animal isolate). In words: Broth microdilution susceptibility assay (MIC). Format: cell-based. To be noted: broth microdilution (CLSI), MH II B with magnesium and calcium cations, 35°C, 20–48 hours. The procedure: as §2
Assay [25] has as its system S. equi (animal isolate). In words: Broth microdilution susceptibility assay (MIC). The class given is cell-based. To be noted: broth microdilution (CLSI), MH II B with magnesium and calcium cations, 35°C, 20–48 hours. As for the experimental part: as §2
For assay [26], the system named is C. parapsilosis ATCC 22019. In words: Broth microdilution susceptibility assay (MIC). To be noted: broth microdilution (CLSI), yeast nitrogen base (YNB) for fungi, 35°C, 20–48 hours. The class given is cell-based, Candida parapsilosis. The procedure:
as §2, with “All plates were incubated at 35°C for 20–48 hours depending on the strain.” left out, “The same microdilution susceptibility assay was performed using Mueller Hinton Broth without the addition of the divalent cations calcium and magnesium (MHB), to test the effect of the cations on PhciCath5 activity against the ATCC strains E. coli 25922 and S. aureus 29213.” left out

The subject of assay [27] is C. krusei ATCC 6258. The experiment in a line: Broth microdilution susceptibility assay (MIC). To be noted: broth microdilution (CLSI), yeast nitrogen base (YNB) for fungi, 35°C, 20–48 hours. Format: cell-based, Candida krusei. As for the experimental part:
as §2, with “All plates were incubated at 35°C for 20–48 hours depending on the strain.” left out, “The same microdilution susceptibility assay was performed using Mueller Hinton Broth without the addition of the divalent cations calcium and magnesium (MHB), to test the effect of the cations on PhciCath5 activity against the ATCC strains E. coli 25922 and S. aureus 29213.” left out

For “PG-1: pig protegrin PG-1, a eutherian cathelicidin (RGGRLCYCRRRFCVCVGR; ends and bridges not checked; cysteine pairing not given here; UniProt P32194 131-148, looked up)”, the “concentration which reduced the infectivity of C. trachomatis” value in assay [1] (single round of infection) is 1.25 µg/mL. For the same compound, the reduction in infectivity is reported as approximately 100% in [1] (treatment of extracellular EBs) and 67% in [1] (treatment of intracellular C. trachomatis).

On to `CC[C@H](C)[C@H](NC(=O)[C@H](CCCNC(=N)N)NC(=O)[C@H](CCCCN)NC(=O)[C@H](Cc1ccccc1)NC(=O)[C@H](CCCNC(=N)N)NC(=O)[C@H](CC(C)C)NC(=O)[C@@H]1CCCN1C(=O)[C@H](CCC(=O)O)NC(=O)[C@@H]1CCCN1C(=O)[C@@H]1CCCN1)C(=O)N[C@@H](CCCNC(=N)N)C(=O)N[C@@H](CS)C(=O)N[C@@H](CC(C)C)C(=O)N[C@@H](CC(N)=O)C(=O)NCC(=O)N[C@@H](CCCNC(=N)N)C(=O)N[C@@H](CCCCN)C(=O)N[C@@H](CS)C(=O)N[C@@H](CC(N)=O)C(=O)N[C@@H](Cc1ccc(O)cc1)C(=O)N[C@@H](Cc1c[nH]cn1)C(=O)N[C@@H](CC(N)=O)C(=O)N[C@@H](CC(C)C)C(=O)N[C@@H](CC(C)C)C(=O)N[C@@H](CC(C)C)C(=O)N[C@H](C(=O)N[C@H](C(=O)N[C@H](C(=O)N1CCC[C@H]1C(=O)N[C@@H](Cc1c[nH]cn1)C(=O)N[C@@H](Cc1c[nH]c2ccccc12)C(=O)N[C@@H](CCCNC(=N)N)C(=O)N[C@H](C(=O)N1CCC[C@H]1C(=O)N[C@@H](CCCCN)C(=O)NCC(=O)N[C@@H](CCCCN)C(=O)O)[C@@H](C)CC)C(C)C)[C@@H](C)CC)[C@@H](C)O` [PhciCath3] (H-PPEPLRFKRIRCLNGRKCNYHNLLLTIVPHWRIPKGK-OH), for which the “activity against C. pecorum IPTaLE up to 500ug/mL” value in assay [2] is on record as “ineffective”. For the same compound, in assay [3], the “activity against C. pecorum MarsBar up to 500ug/mL” value was “ineffective”.

Take `CC[C@H](C)[C@H](NC(=O)CNC(=O)CNC(=O)[C@H](CCCNC(=N)N)NC(=O)[C@@H](N)CCCCN)C(=O)N[C@@H](Cc1c[nH]c2ccccc12)C(=O)N[C@@H](CCCCN)C(=O)N[C@@H](CC(C)C)C(=O)N[C@H](C(=O)N[C@@H](CCCNC(=N)N)C(=O)N1CCC[C@H]1C(=O)N[C@@H](CC(C)C)C(=O)NCC(=O)N[C@@H](CCCNC(=N)N)C(=O)NCC(=O)N[C@@H](C)C(=O)NCC(=O)N[C@@H](CCCNC(=N)N)C(=O)N[C@H](C(=O)N[C@@H](CC(C)C)C(=O)N[C@@H](CCCNC(=N)N)C(=O)N[C@@H](Cc1c[nH]cn1)C(=O)N[C@@H](Cc1ccccc1)C(=O)N[C@@H](Cc1c[nH]cn1)C(=O)N[C@H](C(=O)N[C@@H](CC(=O)O)C(=O)N[C@@H](Cc1ccccc1)C(=O)N[C@@H](CS)C(=O)NCC(=O)N[C@@H](CC(N)=O)C(=O)N[C@@H](CS)C(=O)O)[C@@H](C)CC)[C@@H](C)CC)[C@@H](C)CC` [PhciCath5] (H-KRGGIWKLIRPLGRGAGRILRHFHIDFCGNC-OH): the MIC (usually the lowest concentration found to suppress growth) in assay [4] is 64 µg/mL (≈ 18 µM); in assay [5], more than 64 µg/mL; in assay [6], 64 µg/mL (≈ 18 µM); in assay [7], 16 µg/mL (≈ 4.51 µM); in assay [8], more than 64 µg/mL; in assay [9], more than 64 µg/mL. Also, the MIC in assay [10] is more than 64 µg/mL; in assay [11], more than 64 µg/mL; in assay [12] it was more than 64 µg/mL; in [13], 64 µg/mL (≈ 18 µM); in [14], 64 µg/mL (≈ 18 µM); in [15] it was 16 µg/mL (≈ 4.51 µM). Also, the MIC in assay [16] was more than 64 µg/mL; in assay [17], more than 64 µg/mL; in assay [18], 16 µg/mL (≈ 4.51 µM); in assay [19] it was more than 64 µg/mL; in assay [20] it was 64 µg/mL (≈ 18 µM); in assay [21], more than 64 µg/mL. In addition, the MIC in assay [22] was more than 64 µg/mL; in assay [23] it was 64 µg/mL (≈ 18 µM); in assay [24] it was 8 µg/mL (≈ 2.25 µM); in assay [25], more than 64 µg/mL; in [26], 32 µg/mL (≈ 9.02 µM); in assay [27], 64 µg/mL (≈ 18 µM). The “MIC (in brackets)” value in [4] and in assay [7] was 11 µg/mL (≈ 3.1 µM) in each case.
